Source: the supplement of paper PMC10307832

How the values were obtained:
Assay in all cases: relative viability (nuclei count vs DMSO), 5 days (fraction); higher = more cells survive
[1] = compound: C1COCCN1C2=NC(=NC3=C2OC4=C3C=CC=N4)C5=CC(=CC=C5)NC(=O)C6=CN=C(C=C6)N + Nc1nc2[nH]cc(CCc3ccc(C(=O)N[C@@H](CCC(=O)O)C(=O)O)cc3)c2c(=O)[nH]1 [Pemetrexed] (partner 0.2 µM)
Method in brief: (§1)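 A single step with final 0.05% Triton X-100, 1% formaldehyde and 1 ug/ml Hoechst fixed the cells and stained nuclei 5 days after treatment. Lung cancer cell lines in 1536-well plates had been treated by pin tool the day after seeding with one drug alone or a fixed anchor-drug dose plus five library-drug doses (not always all listed) in √10 steps, and nuclei were counted on 4× images. Relative viability is the ratio of nuclei in treated wells to nuclei in vehicle wells, taken as the median of duplicate plates.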

SGI-1776 + AZD7762 = compound: CN1CCC(CNc2ccc3ncc(-c4cccc(OC(F)(F)F)c4)n3n2)CC1 [SGI-1776] + NC(=O)Nc1cc(-c2cccc(F)c2)sc1C(=O)N[C@H]1CCCNC1 [AZD7762] (partner 0.2 µM)
Method in brief: as §1

Entinostat + Foretinib = compound: Nc1ccccc1NC(=O)c1ccc(CNC(=O)OCc2cccnc2)cc1 [Entinostat] + COc1cc2c(Oc3ccc(NC(=O)C4(C(=O)Nc5ccc(F)cc5)CC4)cc3F)ccnc2cc1OCCCN1CCOCC1 [Foretinib] (partner 0.25 µM)
Method in brief: as §1

Entinostat + Dasatinib = compound: Nc1ccccc1NC(=O)c1ccc(CNC(=O)OCc2cccnc2)cc1 [Entinostat] + Cc1nc(Nc2ncc(C(=O)Nc3c(C)cccc3Cl)s2)cc(N2CCN(CCO)CC2)n1 [Dasatinib] (partner 0.075 µM)
Method in brief: as §1

| Cell Line | relative viability ([1]; first compound 0.02 µM) | relative viability ([1]; first compound 0.06325 µM) | relative viability ([1]; first compound 0.2 µM) | relative viability ([1]; first compound 0.6325 µM) | relative viability ([1]; first compound 2 µM) | relative viability (SGI-1776 + AZD7762; first compound 0.08 µM) | relative viability (SGI-1776 + AZD7762; first compound 0.8 µM) | relative viability (SGI-1776 + AZD7762; first compound 2.53 µM) | relative viability (SGI-1776 + AZD7762; first compound 8 µM) | relative viability (Entinostat + Foretinib; first compound 0.02 µM) | relative viability (Entinostat + Foretinib; first compound 0.06325 µM) | relative viability (Entinostat + Foretinib; first compound 0.2 µM) | relative viability (Entinostat + Foretinib; first compound 0.6325 µM) | relative viability (Entinostat + Foretinib; first compound 2 µM) | relative viability (Entinostat + Dasatinib; first compound 0.02 µM) | relative viability (Entinostat + Dasatinib; first compound 0.06325 µM) | relative viability (Entinostat + Dasatinib; first compound 0.2 µM) | relative viability (Entinostat + Dasatinib; first compound 0.6325 µM) | relative viability (Entinostat + Dasatinib; first compound 2 µM) |
| --- | --- | --- | --- | --- | --- | --- | --- | --- | --- | --- | --- | --- | --- | --- | --- | --- | --- | --- | --- |
| NCI-H1993 | 0.619 | 0.666 | 0.607 | 0.583 | 0.475 | 0.839 | 0.941 | 0.889 | 0.482 | 0.891 | 0.686 | 0.664 | 0.618 | 0.637 | 0.747 | 0.591 | 0.535 | 0.496 | 0.259 |
| NCI-H358 | 0.176 | 0.182 | 0.137 | 0.222 | 0.135 | 0.465 | 0.467 | 0.456 | 0.348 | 0.755 | 0.81 | 0.66 | 0.41 | 0.124 | 0.181 | 0.136 | 0.158 | 0.115 | 0.109 |
| RERF-LC-KJ | 0.507 | 0.46 | 0.484 | 0.457 | 0.376 | 0.912 | 1.08 | 0.831 | 0.828 | 0.853 | 0.856 | 0.84 | 0.516 | 0.285 | 0.82 | 0.656 | 0.731 | 0.374 | 0.237 |
| SK-LU-1 | 1.07 | 0.953 | 1.06 | 0.917 | 0.465 | – | – | – | – | 0.865 | 0.847 | 0.836 | 0.589 | 0.447 | 0.186 | 0.237 | 0.186 | 0.199 | 0.147 |
| COR-L 105 | 1.13 | 1.25 | 0.967 | 1.16 | 0.642 | – | – | – | – | 1.19 | 0.997 | 1.14 | 0.677 | 0.548 | 0.337 | 0.407 | 0.36 | 0.344 | 0.232 |
| NCI-H2009 | 1.07 | 1.05 | 1.07 | 1.01 | 0.849 | – | – | – | – | 1.15 | 1.19 | 1.19 | 0.942 | 0.894 | 0.329 | 0.331 | 0.376 | 0.346 | 0.241 |
| NCI-H1563 | 0.795 | 0.699 | 0.767 | 0.694 | 0.685 | – | – | – | – | 0.543 | 0.918 | 0.823 | 0.77 | 0.609 | 0.465 | 0.48 | 0.438 | 0.461 | 0.42 |
| NCI-H1703 | – | – | – | – | – | 0.106 | 0.114 | 0.136 | 0.106 | 0.322 | 0.346 | 0.49 | 0.812 | 0.688 | – | – | – | – | – |
| EBC-1 | – | – | – | – | – | – | – | – | – | 0.0998 | 0.0994 | 0.101 | 0.0814 | 0.0684 | – | – | – | – | – |
| NCI-H1792 | 1.02 | 0.924 | 0.586 | 0.638 | 0.276 | 0.587 | 0.786 | 0.768 | 0.438 | – | – | – | – | – | 0.692 | 0.802 | 0.825 | 0.452 | 0.402 |
| ABC-1 | – | – | – | – | – | 0.801 | 0.648 | 0.85 | 0.83 | 1.05 | 1.19 | 0.906 | 0.805 | 0.545 | 0.47 | 0.751 | 0.663 | 0.51 | 0.486 |
| SK-MES-1 | 0.984 | 0.958 | 0.827 | 0.86 | 0.646 | – | – | – | – | 1.08 | 1.09 | 1.15 | 0.96 | 0.712 | 0.403 | 0.498 | 0.541 | 0.338 | 0.175 |
| NCI-H1650 | 0.391 | 0.384 | 0.377 | 0.376 | 0.3 | – | – | – | – | 1.08 | 1.06 | 1.11 | 0.681 | 0.57 | 0.385 | 0.354 | 0.407 | 0.284 | 0.212 |
| NCI-H1648 | 0.743 | 0.893 | 0.819 | 0.754 | 0.554 | 0.668 | 0.753 | 0.771 | 0.658 | – | – | – | – | – | – | – | – | – | – |
| A549 | – | – | – | – | – | – | – | – | – | 1.01 | 0.942 | 0.878 | 0.757 | 0.288 | – | – | – | – | – |
| NCI-H1299 | – | – | – | – | – | – | – | – | – | 1.07 | 1.07 | 1.01 | 0.855 | 0.879 | – | – | – | – | – |
| NCI-H1623 | – | – | – | – | – | – | – | – | – | 0.862 | 0.84 | 0.766 | 0.512 | 0.375 | 0.644 | 0.525 | 0.478 | 0.412 | 0.366 |
| NCI-H2228 | 0.348 | 0.345 | 0.299 | 0.26 | 0.144 | – | – | – | – | 0.994 | 0.787 | 0.914 | 0.526 | 0.288 | 0.446 | 0.358 | 0.3 | 0.208 | 0.126 |
| NCI-H727 | – | – | – | – | – | 0.696 | 0.739 | 0.807 | 0.583 | 0.753 | 0.782 | 0.794 | 0.679 | 0.521 | 0.475 | 0.419 | 0.412 | 0.219 | 0.273 |
| NCI-H2023 | 0.278 | 0.222 | 0.196 | 0.166 | 0.134 | – | – | – | – | 0.765 | 0.749 | 0.408 | 0.162 | 0.11 | 0.55 | 0.439 | 0.326 | 0.135 | 0.0809 |
| HCC-44 | 0.616 | 0.639 | 0.676 | 0.682 | 0.653 | 1.07 | 0.969 | 1 | 0.95 | – | – | – | – | – | – | – | – | – | – |
| NCI-H522 | 0.915 | 0.966 | 0.941 | 0.972 | 0.963 | 0.819 | 0.747 | 0.789 | 0.613 | – | – | – | – | – | 0.882 | 1.14 | 1.16 | 1.23 | 0.795 |
| Calu-6 | – | – | – | – | – | – | – | – | – | 0.889 | 0.849 | 0.873 | 0.565 | 0.513 | – | – | – | – | – |
| COR-L23 | 0.202 | 0.204 | 0.194 | 0.162 | 0.167 | – | – | – | – | 0.919 | 0.857 | 0.943 | 0.495 | 0.308 | 0.45 | 0.444 | 0.398 | 0.22 | 0.112 |
| NCI-H520 | 0.653 | 0.752 | 0.655 | 0.685 | 0.351 | – | – | – | – | 0.686 | 0.941 | 0.803 | 0.683 | 0.626 | 0.248 | 0.335 | 0.238 | 0.325 | 0.286 |
